Results taken from ChEMBL document CHEMBL1201862, “PubChem BioAssay data set” (2004).
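Briefly, cells in 96-well plates were exposed to five compound concentrations for 48 h, and endpoints were estimated by linear interpolation. Here, GI50 denotes the concentration required for 50% inhibition of growth.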 The source made the active and inactive calls. Rule as the data show it: active = GI50 up to about 1.1 µM and inactive = higher.

Key:
Assay in all cases: growth of human tumour cells (NCI), 48 h
[1] = system: KM12
[2] = system: CCRF-CEM
[3] = system: HOP-92
[4] = system: HCC 2998
[5] = system: UO-31
[6] = system: SK-MEL-2
[7] = system: T47D
[8] = system: HOP-62
[9] = system: SF-268
[10] = system: A498
[11] = system: SK-OV-3
[12] = system: HCT-116
[13] = system: OVCAR-3
[14] = system: K562
[15] = system: PC-3
[16] = system: SNB-19
[17] = system: RXF 393
[18] = system: OVCAR-5
[19] = system: SF-295
[20] = system: Malme-3M
[21] = system: SNB-75
[22] = system: RPMI-8226
[23] = system: Hs-578T
[24] = system: MCF7
[25] = system: UACC-62
[26] = system: A549
[27] = system: OVCAR-4
[28] = system: MOLT-4
[29] = system: IGROV-1
[30] = system: SN12C
[31] = system: BT-549
[32] = system: UACC-257
[33] = system: HL-60
[34] = system: TK-10
[35] = system: SK-MEL-5
[36] = system: HCT-15
[37] = system: NCI-H23
[38] = system: MDA-N
[39] = system: SK-MEL-28
[40] = system: EKVX
[41] = system: LOX IMVI
[42] = system: MDA-MB-435
[43] = system: OVCAR-8
[44] = system: U-251
[45] = system: SF-539
[46] = system: ACHN
[47] = system: SW-620
[48] = system: COLO 205
[49] = system: DU-145
[50] = system: NCI-H522
[51] = system: CAKI-1
[52] = system: NCI/ADR-RES
[53] = system: SR
[54] = system: HT-29
[55] = system: 786-0
[56] = system: NCI-H460
[57] = system: MDA-MB-231
[58] = system: NCI-H226

## CC(/C=N/N(C)C1=NCCCCN1)=N/N(C)C1=NCCCCN1
[1]
  GI50: > 100 µM (inactive)
[2]
  GI50: > 100 µM (inactive)
[3]
  GI50: > 100 µM (inactive)
[4]
  GI50: > 100 µM (inactive)
[5]
  GI50: > 100 µM (inactive)
[6]
  GI50: > 100 µM (inactive)
[7]
  GI50: > 100 µM (inactive)
[8]
  GI50: > 100 µM (inactive)
[9]
  GI50: > 100 µM (inactive)
[10]
  GI50: 97.9 µM (inactive)
[11]
  GI50: > 100 µM (inactive)
[12]
  GI50: > 100 µM (inactive)
[13]
  GI50: > 100 µM (inactive)
[14]
  GI50: > 100 µM (inactive)
[15]
  GI50: > 100 µM (inactive)
[16]
  GI50: > 100 µM (inactive)
[17]
  GI50: > 100 µM (inactive)
[18]
  GI50: > 100 µM (inactive)
[19]
  GI50: > 100 µM (inactive)
[20]
  GI50: > 100 µM (inactive)
[21]
  GI50: > 100 µM (inactive)
[22]
  GI50: > 100 µM (inactive)
[23]
  GI50: > 100 µM (inactive)
[24]
  GI50: > 100 µM (inactive)
[25]
  GI50: > 100 µM (inactive)
[26]
  GI50: > 100 µM (inactive)
[27]
  GI50: > 100 µM (inactive)
[28]
  GI50: > 100 µM (inactive)
[29]
  GI50: > 100 µM (inactive)
[30]
  GI50: > 100 µM (inactive)
[31]
  GI50: > 100 µM (inactive)
[32]
  GI50: > 100 µM (inactive)
[33]
  GI50: > 100 µM (inactive)
[34]
  GI50: > 100 µM (inactive)
[35]
  GI50: > 100 µM (inactive)
[36]
  GI50: > 100 µM
[37]
  GI50: > 100 µM (inactive)
[38]
  GI50: > 100 µM (inactive)
[39]
  GI50: > 100 µM (inactive)
[40]
  GI50: > 100 µM (inactive)
[41]
  GI50: > 100 µM (inactive)
[42]
  GI50: > 100 µM (inactive)
[43]
  GI50: > 100 µM (inactive)
[44]
  GI50: > 100 µM (inactive)
[45]
  GI50: > 100 µM (inactive)
[46]
  GI50: > 100 µM (inactive)
[47]
  GI50: > 100 µM (inactive)
[48]
  GI50: > 100 µM (inactive)
[49]
  GI50: > 100 µM (inactive)
[50]
  GI50: > 100 µM (inactive)
[51]
  GI50: > 100 µM (inactive)
[52]
  GI50: > 100 µM (inactive)
[53]
  GI50: > 100 µM (inactive)
[54]
  GI50: > 100 µM (inactive)
[55]
  GI50: > 100 µM (inactive)
[56]
  GI50: > 100 µM (inactive)
[57]
  GI50: > 100 µM (inactive)
[58]
  GI50: > 100 µM (inactive)
